Molecules are shown by their SMILES.

Consider eleven compounds from patent US7968572B2, “Nitrogen-containing heterocyclic compound and pharmaceutical application thereof” (Ono Pharmaceuticals Co., Ltd., priority 2005, dated 2011).

Data set [1] has as its system TNF-α production induced by lipopolysaccharide (LPS) in rats. Nature of the data set: Rat cytokine-production model. It counts as in vivo. The following applies: male SD rat, oral 0.3 mg/kg, LPS 10 μg/kg intravenously after 8 hours, plasma TNF-α ninety minutes after LPS; read-out: Inhibition rate (%) (Dose of compound: 0.3 mg/kg). The method, then:
Rat Cytokine-Production Model
The in vivo effect of the compound of the present invention was studied on TNF-α production induced by lipopolysaccharide (LPS) in rats.
A vehicle containing the compound of the present invention was orally administered to male SD rat (Charles River Japan, Inc.), and after 8 hours, lipopolysaccharide (LPS, 055:B5, Difco) was intravenously administered at the dose of 10 μg/kg (5 animals/group). Only a vehicle was orally administered to a control group (5 animals). Ninety minutes after the LPS treatment, heparinized blood collection was performed via the abdominal vena cava under anesthesia with ether, and blood plasma was obtained by centrifugation (12,000 rpm, 3 minutes, 4° C.). The obtained blood plasma sample was stored at −80° C. until it was used. TNF-α in the blood plasma was measured using an ELISA kit from R&D System (#RTA00).
The inhibitory activity of the compound of the present invention against TNF-α production was calculated as an inhibition rate (%) according to the following equation: Inhibition rate (%)={(AC−AX)/AC}×100
wherein AC is a measured value in case where no test compound was administered under LPS induction, and
AX is a measured value in case where a test compound was administered under LPS induction.

Data set [2] relates to Chinese hamster lung cells (CHL/IU). Nature of the data set: Phospholipidosis detection system using a fluorescence labeling phospholipid analog (NBD-PE). As to conditions: for Pospholipid accumulation increasing ratio (% of 30 uM amiodarone) (Dose of compound: 100 uM): about 24 hours with NBD-PE; for Judgment: phospholipidosis inducing activity, NBD-PE. It counts as cell-based. The method, then:
Study by a Phospholipidosis Detection System using a Fluorescence Labeling Phospholipid Analog Cell suspension (7×10^4 cells/ml) of Chinese hamster lung cells (CHL/IU) prepared using MEM (minimum essential medium) was added to a 96 well plate (96 well clear bottom plate) by 100 μL/necessary number of wells (2 wells for 1 dosage) and cultured for about 24 hours. After the culturing and subsequent removal of the supernatants on the 96 well plate, the compounds having respective concentrations prepared by dissolving or suspending in MEM medium containing 25 μmol/L of nitrobenzoxazole dipalmitoyl phosphatidyl ethanolamine (NBD-PE) (hereinafter abbreviated to NBD-PE medium) were added thereto by 100 μL/ well and treated for about 24 hours. Treating concentration of each compound was set to be 6.25, 12.5, 25, 50 or 100 μmol/L. […] In this connection, 5 wells of an untreated control (MEM medium alone) or an NBD-PE control (prepared by adding 1/100 volume of DMSO to the NBD-PE medium) were arranged for each compound and cultured in the same manner. After completion of the culturing and subsequent two times of washing with 100 μL/well of phosphate buffered saline (hereinafter abbreviated to PBS) (−), 100 μL of the MEM medium was added to all of the treated wells including two empty wells for the WST-1 background control and cultured for about 0.5 hour. Fluorescence intensity of each well was measured using a microplate reader (manufactured by Molecular Devices, SPECTRA max M2; excitation wavelength 485 nm/fluorescence wavelength 535 nm). Using average value of 2 wells for each dosage, the phospholipid increasing ratio (%) based on NBD-PE control was calculated using the following formula. Phospholipid accumulation increasing ratio (%)=100×(fluorescence intensity of substance to be tested−fluorescence intensity of untreated control)/(fluorescence intensity of NBD-PE control−fluorescence intensity of untreated control) (iii) Cytotoxicity Test The Pre value was calculated by measuring the 96 well plate which was measured in the measurement of phospholipid accumulation, using the microplate reader (manufactured by Molecular Devices, SPECTRA max M2) at a dominant wavelength of 450 nm and a correction wavelength of 690 nm. Premix WST-1 was added to the pre-measured 96 well plate by 5 μL/well. After 2 to 4 hours of culture, the Aft value was calculated by measuring in the same manner as in the Pre measurement. The background control value was subtracted from each of the measured values. Using the value obtained by subtracting the Pre value from the Aft value, the cell growth ratio (%) was calculated using the following formula.

Data set [3] relates to TNF-α production stimulated by lipopolysaccharide (LPS) in THP-1. As to the kind of experiment: Inhibitory activity against TNF-α production using human cell lines (LPS-stimulated THP-1). It counts as cell-based. As to conditions: 1.5 h, THP-1 cells, LPS stimulation, 90 minutes at 37° C., TNF-α by ELISA. As for the experimental part: Inhibitory Activity against TNF-α Production using Human Cell Lines
Using THP-1 which is a human monocytic cell line, the inhibitory effect of the compound of the present invention against TNF-α production stimulated by lipopolysaccharide (LPS) was studied.
Each 50 μL of lipopolysaccharide (LPS; 055:B5, Difco) prepared to a concentration of 40 ng/mL using RPMI-1640 medium containing 10% fetal calf serum (hereinafter abbreviated to RPMI-1640) and RPMI-1640 containing the compound of the present invention was added to a 96-well plate for cell culture. 100 μL of the cell suspension of THP-1 (Dainippon Pharmaceutical Co., Ltd, #06-202) prepared to a cell density of 2×10^6 cells/mL using RPMI-1640 was added and cultured for 90 minutes at 37° C. in an incubator (5% CO2, 95% air). After completion of the reaction, the culture medium supernatant was recovered and the amount of produced TNF-α was measured using an ELISA kit (Invitrogen, #850090192).
The inhibitory activity against TNF-α production, which is the effect of the compound of the present invention, was calculated as an inhibition rate (%) by the following equation: Inhibition rate (%)={(AC−AX)/(AC−AB)}×100
wherein AB is a measured value without LPS induction;
AC is a measured value with LPS induction in the absence of a test compound; and
AX is a measured value with LPS induction in the presence of a test compound.
Inhibition rate of compounds with each concentration was calculated, and a value indicating 50% inhibition (IC50) was determined from the inhibition curve.

With `C[C@@](O)(CO)c1nc(-c2ccc(F)cc2F)c(-c2ccc(=O)n(-c3c(F)cccc3F)c2)o1` [Example 211, 1-(2,6-difluorophenyl)-5-{4-(2,4-difluorophenyl)-2-[(1R)-1,2-dihydroxy-1-methylethyl]-1,3-oxazol-5-yl}-2(1H)-pyridinone], in data set [1], the inhibition at 0.3 mg/kg was found to be 85%. In addition, in data set [2], the “Pospholipid accumulation increasing ratio (% of 30 uM amiodarone) (Dose of compound: 100 uM)” value was 8 % of 30 uM amiodarone and the Judgment entry is reported as “Negative”. Moreover, in data set [3], inhibition was half-maximal at 0.6 nM (IC50).

For the compound `CC(C)(O)Cc1nc(-c2ccc(F)cc2F)c(-c2ccc(=O)n(-c3c(F)cccc3F)c2)o1` [Example 220, 1-(2,6-difluorophenyl)-5-[4-(2,4-difluorophenyl)-2-(2-hydroxy-2-methylpropyl)-1,3-oxazol-5-yl]-2(1H)-pyridinone], the inhibition at 0.3 mg/kg in data set [1] amounted to 88%. Besides, in data set [2], the “Pospholipid accumulation increasing ratio (% of 30 uM amiodarone) (Dose of compound: 100 uM)” value is listed as 11 % of 30 uM amiodarone and the Judgment result is “Negative”. The compound further displayed an IC50 in data set [3] of 1.4 nM.

On to `C[C@](O)(CO)c1nc(-c2ccc(=O)n(-c3c(F)cccc3F)c2)c(-c2ccc(F)cc2F)o1` [Example 167 (2), 1-(2,6-difluorophenyl)-5-{5-(2,4-difluorophenyl)-2-[(1S)-1,2-dihydroxy-1-methylethyl]-1,3-oxazol-4-yl}-2(1H)-pyridinone], for which the inhibition at 0.3 mg/kg in data set [1] is 64%. In data set [2], the “Pospholipid accumulation increasing ratio (% of 30 uM amiodarone) (Dose of compound: 100 uM)” value is 18 % of 30 uM amiodarone and the Judgment result is reported as “Negative”. Also, in data set [3], the IC50 came to 1.1 nM.

For the compound `CC(C)(O)c1nc(-c2ccc(=O)n(-c3c(F)cccc3F)c2)c(-c2ccc(F)cc2F)o1` [Example 7 (21), 1-(2,6-difluorophenyl)-5-[5-(2,4-difluorophenyl)-2-(1-hydroxy-1-methylethyl)-1,3-oxazol-4-yl]-2(1H)-pyridinone], the inhibition at 0.3 mg/kg in data set [1] was 85%. Moreover, in data set [2], the “Pospholipid accumulation increasing ratio (% of 30 uM amiodarone) (Dose of compound: 100 uM)” value is 8 % of 30 uM amiodarone and the Judgment result is given as “Negative”. In data set [3], this compound yielded a half-maximal inhibitory concentration (IC50) of 1.7 nM.

As to `CC(C)(O)[C@@H](O)c1nc(-c2ccc(F)cc2F)c(-c2ccc(=O)n(-c3c(F)cccc3F)c2)o1` [Example 207, 1-(2,6-difluorophenyl)-5-{4-(2,4-difluorophenyl)-2-[(1R)-1,2-dihydroxy-2-methylpropyl]-1,3-oxazol-5-yl}-2(1H)-pyridinone], in data set [1], the inhibition at 0.3 mg/kg was 94%. Besides, in data set [2], the “Pospholipid accumulation increasing ratio (% of 30 uM amiodarone) (Dose of compound: 100 uM)” value is on record as 11 % of 30 uM amiodarone and the Judgment entry is listed as “Negative”. In addition, the half-maximal inhibitory concentration (IC50) in data set [3] amounted to 0.6 nM.

On to `CC(C)(O)[C@H](O)c1nc(-c2ccc(=O)n(-c3c(F)cccc3F)c2)c(-c2ccc(F)cc2F)o1` [Example 227, 1-(2,6-difluorophenyl)-5-{5-(2,4-difluorophenyl)-2-[(1S)-1,2-dihydroxy-2-methylpropyl]-1,3-oxazol-4-yl}-2(1H)-pyridinone], for which the inhibition at 0.3 mg/kg in data set [1] came out at 65%. In data set [2], the “Pospholipid accumulation increasing ratio (% of 30 uM amiodarone) (Dose of compound: 100 uM)” value is 12 % of 30 uM amiodarone and the Judgment result is on record as “Negative”. Further, the IC50 in data set [3] was 1.7 nM.

`C[C@@](O)(CO)c1nc(-c2ccc(=O)n(-c3c(F)cccc3F)c2)c(-c2ccc(F)cc2F)o1` [Example 167 (1), 1-(2,6-difluorophenyl)-5-{5-(2,4-difluorophenyl)-2-[(1R)-1,2-dihydroxy-1-methylethyl]-1,3-oxazol-4-yl}-2(1H)-pyridinone]: in data set [1], the inhibition at 0.3 mg/kg was 73%. For the same compound, in data set [2], the “Pospholipid accumulation increasing ratio (% of 30 uM amiodarone) (Dose of compound: 100 uM)” value is recorded as 3 % of 30 uM amiodarone and the Judgment entry is on record as “Negative”. The same compound came in with a 50% inhibitory concentration (IC50) in data set [3] of 0.8 nM.

As to `CC(C)(O)[C@@H](O)c1nc(-c2ccc(=O)n(-c3c(F)cccc3F)c2)c(-c2ccc(F)cc2F)o1` [Example 227 (1), 1-(2,6-difluorophenyl)-5-{5-(2,4-difluorophenyl)-2-[(1R)-1,2-dihydroxy-2-methylpropyl]-1,3-oxazol-4-yl}-2(1H)-pyridinone], the inhibition at 0.3 mg/kg in data set [1] stood at 88%. Besides, in data set [2], the “Pospholipid accumulation increasing ratio (% of 30 uM amiodarone) (Dose of compound: 100 uM)” value is 13 % of 30 uM amiodarone and the Judgment result is “Negative”. The compound also came in with a half-inhibitory concentration (IC50) in data set [3] of 0.7 nM.

Regarding `O=c1ccc(-c2nc(C(O)(CO)CO)oc2-c2ccc(F)cc2F)cn1-c1c(F)cccc1F` [Example 7 (39), 1-(2,6-difluorophenyl)-5-{5-(2,4-difluorophenyl)-2-[1,2-dihydroxy-1-(hydroxymethyl)ethyl]-1,3-oxazol-4-yl}-2(1H)-pyridinone], the inhibition at 0.3 mg/kg in data set [1] came out at 64%. In addition, in data set [2], the “Pospholipid accumulation increasing ratio (% of 30 uM amiodarone) (Dose of compound: 100 uM)” value was 11 % of 30 uM amiodarone and the Judgment result is “Negative”. The compound also yielded an IC50 in data set [3] of 1.8 nM.

Consider `CC(C)(O)[C@H](O)c1nc(-c2ccc(F)cc2F)c(-c2ccc(=O)n(-c3c(F)cccc3F)c2)o1` [Example 206, 1-(2,6-difluorophenyl)-5-{4-(2,4-difluorophenyl)-2-[(1S)-1,2-dihydroxy-2-methylpropyl]-1,3-oxazol-5-yl}-2(1H)-pyridinone], for which the inhibition at 0.3 mg/kg in data set [1] worked out at 79%. In addition, in data set [2], the “Pospholipid accumulation increasing ratio (% of 30 uM amiodarone) (Dose of compound: 100 uM)” value is reported as 10 % of 30 uM amiodarone and the Judgment result is given as “Negative”. This compound showed a concentration for half-maximal inhibition (IC50) in data set [3] of 0.9 nM.

As for `O=c1ccc(-c2oc(C(O)(CO)CO)nc2-c2ccc(F)cc2F)cn1-c1c(F)cccc1F` [Example 223, 1-(2,6-difluorophenyl)-5-{4-(2,4-difluorophenyl)-2-[1,2-dihydroxy-1-(hydroxymethyl)ethyl]-1,3-oxazol-5-yl}-2(1H)-pyridinone], in data set [1], the inhibition at 0.3 mg/kg turned out to be 72%. For the same compound, in data set [2], the “Pospholipid accumulation increasing ratio (% of 30 uM amiodarone) (Dose of compound: 100 uM)” value is 12 % of 30 uM amiodarone and the Judgment entry is on record as “Negative”. This compound also had an IC50 in data set [3] of 2.1 nM.

In general, IC50 refers to the concentration at which inhibition is half-maximal.
